Results from ChEMBL document CHEMBL3817759, “Novel drug design for Chagas disease via targeting Trypanosoma cruzi tubulin: Homology modeling and binding pocket prediction on Trypanosoma cruzi tubulin polymerization inhibition by naphthoquinone derivatives” (Bioorg Med Chem, 2016).

Tests used:
Trypanosoma cruzi = assay: Antitrypanosomal activity against epimastigote stage of Trypanosoma cruzi Tulahuen CL98 after 48 hrs by hemocytometry; format: functional, organism-based; conditions: Tulahuen CL98, 48 h
[1] = Inhibition of Trypanosoma cruzi tubulin polymerization incubated at room temperature for 15 mins followed by 5 mins at 4 degC in presence of GTP by photometric method

Structure (SMILES) | IC50 (Trypanosoma cruzi) | IC50 [1]
CCCC(=O)N(C(=O)CCC)C1=C(Cl)C(=O)c2ccccc2C1=O | 0.7 µM | 3.2 µM
O=C1C(Cl)=C(N(C(=O)c2cccc(Cl)c2)C(=O)c2cccc(Cl)c2)C(=O)c2ccccc21 | 2.23 µM | 8 µM
O=C1C(Cl)=C(N2C(=O)c3ccccc3C2=O)C(=O)c2ccccc21 | 4.83 µM | 12 µM
O=C1C(Cl)=C(N(C(=O)CCl)C(=O)CCl)C(=O)c2ccccc21 | 6.1 µM | > 40 µM
O=C1C(Cl)=C(N2C(=O)CCC2=O)C(=O)c2ccccc21 | 2.77 µM | 6 µM
CC1CS(=O)(=O)CCN1/N=C/c1ccc([N+](=O)[O-])o1 (stereo unspecified) [NIFURTIMOX] | 10.7 µM | –
